Measured values from patent publication US12173018B2, “Penicillin-binding protein inhibitors” (priority 2018, dated 2024).
Converted amounts (≈) assume the structure as drawn. Like-named read-outs stand apart in the source and are kept apart here.

Key:
[1] = biological target: E. coli PBP3 (Escherichia coli (strain K12), UniProt P0AD68); assay: E. coli PBP3 Bocillin-FL fluorescence polarization competition binding assay
In short: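 Purified PBP (1.5 μM final) was combined with test compound (0–1000 μM) and Bocillin-FL (fluorescent penicillin V, 0.1 μM final) in 50 mM Hepes pH 8.0, 300 mM NaCl, 5% glycerol.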

[2] = biological target: E. coli PBP1b (Escherichia coli (strain K12), UniProt P02919); assay: Radioligand competition binding assay with 14C-labeled boronic acid probe, PBP1b
Text: To determine the ability of boronic acid-based test PBP inhibitors to bind Penicillin Binding Proteins (PBPs), a radio-labelled boronic acid PBP inhibitor
[drawing 751] was used in competition binding assays to determine boronic acid PBP inhibitor binding to PBP1a or PBP1b from Escherichia coli. PBP1a and PBP1b were purified as described previously (Bertsche, U.; et al., J. Biol. Chem. 2005, 280 (45), 38096-38101; Born, P.; et al., J. Biol. Chem. 2006. 281 (37), 26985-26993). To establish assay conditions for competition binding, an enzyme titration/saturation binding experiment was performed. Saturation binding was performed in a buffer comprised of 20 mM Tris (pH 7.5), 500 mM NaCl and 0.1% (v/v) TritonX-100, with PBP1a/PBP1b at a final concentration of 0.1 μM and Compound A at final concentrations ranging from 0-100 μM. Mixtures were incubated for 60 minutes, then applied to Zeba Spin Desalting columns or plates (ThermoFisher Scientific) and centrifuged at 1000-1500×g for 2 minutes. The flow through, containing PBP bound with Compound A, was recovered and 100 μL mixed with 5 mL of UltimaGold liquid scintillation cocktail (Perkin Elmer), and the radioactivity counted using a Beckman Coulter LS 6500 Multipurpose scintillation counter. PBP binding of Compound A approached saturation at 20 μM of ^14C-labeled probe. The competition binding assay was validated using the beta-lactam ampicillin, with Compound A at a final concentration of 20 μM, PBP1a/PBP1b at a final concentration of 0.1 μM. PBP1a/PBP1b was incubated with ampicillin in a 96-well microplate for 60 minutes, then Compound A was added and the mixtures incubated for an additional 60 minutes. The mixtures were then applied to Zeba Spin desalting plates and centrifuged at 1000×g for 2 minutes. The flow through was recovered and 100 μl mixed with 5 ml of UltimaGold liquid scintillation cocktail and the radioactivity counted. […] Binding assays with boronic acid PBP inhibitors were performed in an identical fashion. The potency of boronic acid PBP inhibitors was reported as the EC50 value.

[3] = tested on: N. gonorrhoeae ATCC 49226; assay: Liquid broth MIC, N. gonorrhoeae ATCC 49226; assay type: cell-based; conditions: Neisseria gonorrhoeae, ATCC49226; N. gonorrhoeae ATCC 49226, liquid broth; read-out: Minimum Inhibitory Concentration, N. gonorrhoeae ATCC 49226
Protocol: (§1) Additional antibacterial testing of the series was performed in wild-type reference strains of N. gonorrhoeae (ATCC 49226, FA1090, WHO F and FA19). Liquid broth-based assays were used for antibacterial testing of PBP inhibitors in Neisseria gonorrhoeae. Briefly, cryo-preserved bacterial cultures of clinical strains are streaked for isolation on GC Base agar (BD #228950 at 36 g/L autoclaved at 121° C. for 20 minutes to sterilize) with 1% Kellogg's supplement (40 g glucose, 0.5 g glutamine, 0.05 g ferric nitrate and 2 mg cocarboxylase per 100 mL deionized water filter sterilized through 0.2 μm syringe filters). Following incubation at 36° C. and 5% CO2 to allow growth of colonies, strains are aseptically sub-cultured from original agar plate onto 3 agar plates per strain 24 hours before inoculum preparation. 2-fold serial dilutions of test compounds are conducted in a 96 well plate with a final volume of 150 μL per well at 4/3-fold the final desired concentration. For preparation of assay inoculum, a direct suspension is prepared by aseptically swabbing all colonies from sub-cultured agar plates into culture tubes containing 2 mL of fresh GC broth with […]. After the dilution plates are set up, direct suspensions are then diluted in a cuvette containing GC broth (15 g proteose peptone 43, 1 g corn starch, 4 g dipotassium phosphate, 1 g monopotassium phosphate and 5 g sodium chloride per liter of deionized water are mixed on a stir plate for 20 minutes, pH adjusted to 7.2+/−0.2 pH units with 1 N HCl, centrifuged at 10,000×g for 20 minutes to pellet undissolved corn starch and then autoclaved at 121° C. for 20 minutes to sterilize) and the optical density is measured at 600 nm. Inocula are diluted such that 50 μL of this culture in […] results in a starting bacterial concentration of 5×10^5 CFU/mL when added to the dilution plates. The plates are incubated 40-42 hours at 36° C. and 5% CO2. The MIC is read visually as the lowest concentration well with no bacterial growth.

[4] = tested on: N. gonorrhoeae FA1090; assay: Liquid broth MIC, N. gonorrhoeae FA1090; assay type: cell-based; conditions: Neisseria gonorrhoeae; N. gonorrhoeae FA1090, liquid broth; read-out: Minimum Inhibitory Concentration, N. gonorrhoeae FA1090
Protocol: as §1

[5] = tested on: N. gonorrhoeae WHO F; assay: Liquid broth MIC, N. gonorrhoeae WHO F; assay type: cell-based; conditions: Neisseria gonorrhoeae; N. gonorrhoeae WHO F, liquid broth; read-out: Minimum Inhibitory Concentration, N. gonorrhoeae WHO F
Protocol: as §1

[6] = tested on: N. gonorrhoeae FA19; assay: Liquid broth MIC, N. gonorrhoeae FA19; assay type: cell-based; conditions: Neisseria gonorrhoeae; N. gonorrhoeae FA19, liquid broth; read-out: Minimum Inhibitory Concentration, N. gonorrhoeae FA19
Protocol: as §1

[7] = tested on: engineered strain of Escherichia coli harboring CTX-M15; assay: microbe, parasite or virus in culture; assay type: cell-based; conditions: Escherichia coli, read-out: Microbiological Activity (MIC in mg/L), E. coli DH5α/pLBII-CTX-M15, engineered strain producing CTX-M15
Protocol: Briefly, cryo-preserved bacterial cultures of challenge strains are streaked for isolation on appropriate agar medium, in this case Mueller Hinton II agar. Following incubation to allow growth of the colonies, plates are sealed with parafilm and stored refrigerated for up to two weeks. For preparation of assay inoculum and to ensure low variability, at least 5 colonies are picked from the agar plates with an inoculating loop and aseptically transferred to a culture tube containing 3 mL of Mueller-Hinton Broth (supplemented with divalent cations to required levels based on Manufacturers' certification). The broth culture is grown for 3-5 hours at 37° C. with shaking at 200 rpm. Meanwhile, 2-fold serial dilutions of test compounds are conducted in a 96 well plate with a final volume of 75 μL per well at 2-fold the final desired concentration. After the dilution plates are set up the growing cultures are then diluted in a cuvette containing MH II broth and the optical density is measured at 600 nm. The Inoculum is diluted such that 75 μL of this culture in Mueller-Hinton Broth results in a starting bacterial concentration of 5×10^5 CFU/mL when added to the dilution plates. The plates are incubated for 16-20 hours at 37° C. The MIC values are read visually as the lowest concentration well with no bacterial growth.
To determine if test compounds were affected by CTX-M15, the most abundant extended spectrum […] in clinical settings worldwide, the inhibition of the growth of an engineered strain of Escherichia coli harboring CTX-M15 was tested. This strain was constructed by cloning the gene encoding CTX-M15 into the NdeI and BamHI restriction endonuclease sites of plasmid pLBII, placing the gene(s) under the control of the Lac promoter. The constructed expression plasmid for CTX-M15 was used to transform competent E. coli DH5α cells to make the engineered strain, including an empty pLBII vector control strain. The classic cell based broth microdilution MIC assay was employed as described above with the addition of control antibiotics, known to be degraded by β-lactamases (Ceftazidime, piperacillin and piperacillin+tazobactam).

[8] = tested on: E. coli ATCC 25922; assay: Broth microdilution MIC, E. coli ATCC 25922; assay type: cell-based; conditions: Escherichia coli, ATCC25922; E. coli ATCC 25922, broth microdilution; read-out: MIC E. coli 25922
In short: (§2)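 MIC = lowest concentration showing no visible growth after 16-20 h at 37° C. Cation-adjusted MH broth, 2-fold serial dilutions, starting inoculum 5×10^5 CFU/mL, per CLSI methods.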

[9] = tested on: E. coli AG100; assay: Broth microdilution MIC, E. coli AG100 (wild-type parent); assay type: cell-based; conditions: Escherichia coli; wild-type parent E. coli AG100, broth microdilution; read-out: MIC E. coli AG100
In short: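 Starting inoculum of 5×10^5 CFU/mL, from colonies grown 3-5 h in Mueller-Hinton broth with divalent cations, added to two-fold compound dilution series.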

[10] = tested on: E. coli 901C; assay: microbe, parasite or virus in culture; assay type: cell-based; conditions: Escherichia coli; hyper-permeable E. coli 901C, broth microdilution; read-out: MIC E. coli 901C
In short: as §2

[11] = tested on: E. coli AG100A; assay: microbe, parasite or virus in culture; assay type: cell-based; conditions: Escherichia coli, read-out: MIC E. coli AG100A
In short: as §2

[12] = tested on: E. coli D22; assay: microbe, parasite or virus in culture; assay type: cell-based; conditions: Escherichia coli; hyper-permeable E. coli D22, broth microdilution; read-out: MIC E. coli D22
In short: as §2

[13] = tested on: K. pneumoniae SI-117; assay: microbe, parasite or virus in culture; assay type: cell-based; conditions: Klebsiella pneumoniae, SI117, read-out: MIC K. pneumoniae SI-117
In short: as §2

[14] = tested on: K. pneumoniae UMM; assay: microbe, parasite or virus in culture; assay type: cell-based; conditions: Klebsiella pneumoniae; K. pneumoniae UMM producing SHV-5 and KPC-2; read-out: MIC K. pneumoniae UMM
In short: as §2

[15] = tested on: K. pneumoniae 848844; assay: microbe, parasite or virus in culture; assay type: cell-based, Klebsiella pneumoniae; conditions: Klebsiella pneumoniae; K. pneumoniae 848844 producing SHV-11 and KPC-2; read-out: MIC K. pneumoniae 848844
In short: as §2

Chain of E. coli PBP3 (P0AD68 whole entry): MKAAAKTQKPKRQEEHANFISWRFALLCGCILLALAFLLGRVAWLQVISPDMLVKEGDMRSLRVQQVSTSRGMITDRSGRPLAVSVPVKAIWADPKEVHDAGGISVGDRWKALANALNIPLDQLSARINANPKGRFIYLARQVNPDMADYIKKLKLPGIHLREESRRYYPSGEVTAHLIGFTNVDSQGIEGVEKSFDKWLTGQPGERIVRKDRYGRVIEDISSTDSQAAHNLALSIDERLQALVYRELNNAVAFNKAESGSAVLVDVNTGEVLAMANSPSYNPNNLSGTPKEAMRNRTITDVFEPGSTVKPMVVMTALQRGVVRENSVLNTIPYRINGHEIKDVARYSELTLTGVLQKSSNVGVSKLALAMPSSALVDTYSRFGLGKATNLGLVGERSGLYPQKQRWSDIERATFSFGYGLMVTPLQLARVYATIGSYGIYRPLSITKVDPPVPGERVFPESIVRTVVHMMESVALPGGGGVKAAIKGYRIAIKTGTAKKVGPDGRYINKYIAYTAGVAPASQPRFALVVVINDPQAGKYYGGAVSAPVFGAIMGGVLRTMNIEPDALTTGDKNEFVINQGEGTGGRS
Chain of E. coli PBP1b (P02919 whole entry): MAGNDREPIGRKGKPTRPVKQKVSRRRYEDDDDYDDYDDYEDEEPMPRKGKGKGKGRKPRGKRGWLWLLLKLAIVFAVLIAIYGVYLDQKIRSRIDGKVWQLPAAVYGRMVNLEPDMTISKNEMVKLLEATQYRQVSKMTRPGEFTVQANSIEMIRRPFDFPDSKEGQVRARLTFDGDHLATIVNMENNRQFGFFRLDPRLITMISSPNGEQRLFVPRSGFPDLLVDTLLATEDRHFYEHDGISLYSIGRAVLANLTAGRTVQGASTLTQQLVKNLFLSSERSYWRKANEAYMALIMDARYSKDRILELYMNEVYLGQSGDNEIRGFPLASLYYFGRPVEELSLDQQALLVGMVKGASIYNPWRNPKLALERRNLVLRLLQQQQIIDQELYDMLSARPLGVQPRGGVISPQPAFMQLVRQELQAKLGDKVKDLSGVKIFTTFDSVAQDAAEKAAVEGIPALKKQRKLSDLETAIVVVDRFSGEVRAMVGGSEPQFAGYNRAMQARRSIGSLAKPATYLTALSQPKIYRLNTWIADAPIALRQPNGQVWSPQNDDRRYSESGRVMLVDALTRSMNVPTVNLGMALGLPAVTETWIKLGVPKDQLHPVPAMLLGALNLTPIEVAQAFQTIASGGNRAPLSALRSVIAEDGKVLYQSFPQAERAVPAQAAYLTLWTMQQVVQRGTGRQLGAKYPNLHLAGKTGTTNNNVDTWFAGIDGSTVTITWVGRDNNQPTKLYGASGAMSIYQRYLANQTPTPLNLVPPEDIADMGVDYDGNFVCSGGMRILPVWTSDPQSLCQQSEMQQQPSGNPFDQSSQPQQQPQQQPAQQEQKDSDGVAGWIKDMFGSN

Question: For CCN1CCN(C(=O)NC(CC(=O)N[C@H]2Cc3cccc(C(=O)O)c3OB2O)c2cc(O)c(O)c(Cl)c2)C(=O)C1=O (stereo partly drawn) [Example 43, (3R)-3-(3-(3-chloro-4,5-dihydroxyphenyl)-3-(4-ethyl-2,3-dioxopiperazine-1-carboxamido)propanamido)-2-hydroxy-3,4-dihydro-2H-benzo[e][1,2]oxaborinine-8-carboxylic acid], which EC50 [1] is on record?
Answer: 30 to 500 µM

Question: And the EC50 [2]?
Answer: 10 to 100 µM

Question: For O=C(O)c1cccc2c1OB(O)[C@@H](NC(=O)C(NC(=O)N1CCNC1=O)c1ccc(O)c(O)c1Cl)C2 (stereo partly drawn) [Example 52, (3R)-3-(2-(2-chloro-3,4-dihydroxyphenyl)-2-(2-oxoimidazolidine-1-carboxamido)acetamido)-2-hydroxy-3,4-dihydro-2H-benzo[e][1,2]oxaborinine-8-carboxylic acid], which MIC [3] is on record?
Answer: 0.25 to 0.5 µg/mL (≈ 0.482 to 0.964 µM)

Question: And the MIC [4]?
Answer: < 0.125 µg/mL

Question: What about the MIC [5] of the same compound?
Answer: < 0.125 µg/mL

Question: What about the MIC [6] of the same compound?
Answer: > 64 µg/mL

Question: And the MIC [7]?
Answer: 128 to 256 mg/L (≈ 247 to 494 µM)

Question: CCN1CCN(C(=O)NC(C(=O)N[C@H]2Cc3cccc(C(=O)O)c3OB2O)c2ccccn2)C(=O)C1=O (stereo partly drawn) [Example 56, (3R)-3-(2-(4-ethyl-2,3-dioxopiperazine-1-carboxamido)-2-(pyridin-2-yl)acetamido)-2-hydroxy-3,4-dihydro-2H-benzo[e][1,2]oxaborinine-8-carboxylic acid] was tested. Which EC50 [2] did it give?
Answer: > 100 µM

Question: CCN1CCN(C(=O)NC(C(=O)N[C@H]2Cc3cccc(C(=O)O)c3OB2O)c2ccc(-c3nnn[nH]3)cc2)C(=O)C1=O (some centres unmarked) [Example 93] was tested. Which EC50 ([1]; fluorescence polarization competition binding with Bocillin-FL, read-out: E. coli K12 PBP3 Potency) did it give?
Answer: < 30 µM

Question: And the MIC [3]?
Answer: 4 to 8 µg/mL (≈ 6.94 to 13.9 µM)

Question: What about the MIC [4] of the same compound?
Answer: 0.25 to 0.5 µg/mL (≈ 0.434 to 0.868 µM)

Question: What about the MIC [5] of the same compound?
Answer: < 0.125 µg/mL

Question: And the MIC [6]?
Answer: 4 to 8 µg/mL (≈ 6.94 to 13.9 µM)

Question: What about the MIC [7] of the same compound?
Answer: 32 to 64 mg/L (≈ 55.5 to 111 µM)

Question: With CCN1CCN(C(=O)NC(C(=O)N[C@H]2Cc3cccc(C(=O)O)c3OB2O)C(Cl)CCCO)C(=O)C1=O (stereo partly drawn) [Example 130, (3R)-3-(3-chloro-2-(4-ethyl-2,3-dioxopiperazine-1-carboxamido)-6-hydroxyhexanamido)-2-hydroxy-3,4-dihydro-2H-benzo[e][1,2]oxaborinine-8-carboxylic acid] as the compound, how does the EC50 ([2]; read-out: E. coli K12 PBP1b EC50, competition binding with 14C-labeled boronic acid probe) read?
Answer: > 100 µM

Question: What does the source list for CCN1CCN(C(=O)NC(C(=O)N[C@H]2Cc3cccc(C(=O)O)c3OB2O)c2ncc(N)cc2F)C(=O)C1=O (stereo partly drawn) [Example 214, (3R)-3-(2-(5-amino-3-fluoropyridin-2-yl)-2-(4-ethyl-2,3-dioxopiperazine-1-carboxamido)acetamido)-2-hydroxy-3,4-dihydro-2H-benzo[e][1,2]oxaborinine-8-carboxylic acid]?
Answer: EC50 [1]: 30 to 500 µM; MIC [8]: 8 to 16 µg/mL; MIC [9]: 32 to 64 µg/mL; MIC [10]: 0.5 to 1 µg/mL; MIC [11]: 2 to 4 µg/mL; MIC [12]: 2 to 4 µg/mL; MIC [13]: 32 to 64 µg/mL; MIC [14]: 32 to 64 µg/mL; MIC [15]: 32 to 64 µg/mL; MIC [3]: 4 to 8 µg/mL (≈ 7.38 to 14.8 µM); MIC [4]: < 0.125 µg/mL; MIC [5]: < 0.125 µg/mL; MIC [6]: 4 to 8 µg/mL (≈ 7.38 to 14.8 µM)

Question: Which results are given for O=C(O)c1cccc2c1OB(O)[C@@H](NC(=O)C(NC(=O)N1C[C@@H]3CCCN3C(=O)C1=O)c1ncc(O)cc1F)C2 (stereo partly drawn) [Example 223, (3R)-3-(2-((S)-3,4-dioxooctahydropyrrolo[1,2-a]pyrazine-2-carboxamido)-2-(3-fluoro-5-hydroxypyridin-2-yl)acetamido)-2-hydroxy-3,4-dihydro-2H-benzo[e][1,2]oxaborinine-8-carboxylic acid]?
Answer: EC50 [1]: 30 to 500 µM; MIC [8]: > 128 µg/mL; MIC [9]: > 128 µg/mL; MIC [10]: 8 to 16 µg/mL; MIC [11]: 32 to 64 µg/mL; MIC [12]: 32 to 64 µg/mL; MIC [13]: > 128 µg/mL; MIC [14]: > 128 µg/mL; MIC [15]: > 128 µg/mL; MIC [3]: > 64 µg/mL; MIC [4]: 1 to 2 µg/mL (≈ 1.8 to 3.6 µM); MIC [5]: 1 to 2 µg/mL (≈ 1.8 to 3.6 µM); MIC [6]: > 64 µg/mL
